Source: patent publication US20240246969A1, “HETEROCYCLIC DERIVATIVES AS CAMKK2 INHIBITORS” (Bristol-Myers Squibb Company, priority 2021, published 2024)
Read-outs that look alike come from different tables or passages of the source.

Experiments:
[1] = test system: A549 lung carcinoma cells; assay: Cell proliferation assay (CellTiter 96 Aqueous); type: cell-based; settings: Homo sapiens, compounds 48 hours, read-out: Cellular IC50 Proliferation
Description: Proliferation was measured using CellTiter 96 Aqueous Non-Radioactive Cell Proliferation Assay Kit (Promega), which determines the number of viable cells in culture based on quantitation of dehydrogenase enzymes, as an indicator of metabolically active cells. A549 lung carcinoma cells were seeded at 2,000 cells/well in a 96-well tissue culture treated plate in DMEM+10% FBS+1× pen/step+1×NEAA and incubated at 37° C. overnight in a CO2 incubator. Cells were treated with compounds for 48 hours. Then viability was measured using CellTiter 96 Aqueous Non-Radioactive Cell Proliferation Assay Kit (Promega). Detection was performed using Biotek Cytation 5 Cell Imaging Multi Mode plate reader.

[2] = target: CaMKK2 (Homo sapiens, UniProt Q96RR4); assay: CaMKK2 binding assay (LanthaScreen TR-FRET)
Chain of CaMKK2 (Q96RR4 whole entry): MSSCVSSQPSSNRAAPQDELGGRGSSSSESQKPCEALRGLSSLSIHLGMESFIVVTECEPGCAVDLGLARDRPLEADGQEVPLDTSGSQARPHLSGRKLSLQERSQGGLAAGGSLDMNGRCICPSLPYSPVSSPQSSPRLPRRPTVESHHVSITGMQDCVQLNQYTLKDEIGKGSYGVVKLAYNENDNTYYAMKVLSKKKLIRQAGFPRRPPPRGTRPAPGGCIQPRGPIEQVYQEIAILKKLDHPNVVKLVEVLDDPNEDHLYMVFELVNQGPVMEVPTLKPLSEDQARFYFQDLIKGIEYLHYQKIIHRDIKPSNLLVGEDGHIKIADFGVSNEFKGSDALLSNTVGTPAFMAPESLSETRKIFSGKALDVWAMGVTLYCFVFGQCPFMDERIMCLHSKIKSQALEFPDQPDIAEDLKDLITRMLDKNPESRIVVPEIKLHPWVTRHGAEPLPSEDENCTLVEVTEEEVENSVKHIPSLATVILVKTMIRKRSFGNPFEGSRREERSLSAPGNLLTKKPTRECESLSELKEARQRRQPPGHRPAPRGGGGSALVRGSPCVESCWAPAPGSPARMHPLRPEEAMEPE
Description: The ability of test compounds to bind and inhibit the activity of CaMKK2 were determined using a binding assay using LanthaScreent (Thermofisher) detection reagents in a 384-well plate format using the following assay buffer: 50 mM HEPES (pH7.5), 10 mM MgCl2, 1 mM EGTA, and 0.01% Brij-35.
A 10-point serial dilution of inhibitor compound in 0.5% DMSO was added to each well of the plate. The final assay volume in well was 15 uL. […] A ratio was calculated from the 2 readouts and fitted to a 4-parameter fit to determine the binding IC50.

[3] = test system: phosphorylation of CaMKK2 substrate AMPK at Thr172 in A549 lung carcinoma cells; assay: Cell-based phosphorylation assay (Phospho-AMPK Thr172 HTRF); settings: Homo sapiens; for IC50: A549 cells, compounds 4 hours, 3 uM Calcium Ionophore 30 minutes, read-out: Cellular IC50 Phosphorylation
Description: Cellular CaMKK2 inhibition by compounds was measured by monitoring the phosphorylation of CaMKK2 substrate AMPK at Thr172 in A549 lung carcinoma cells (ATCC) using CISBIO Phospho-AMPK (Thr172) HTRF kit. A549 cells were plated in 96 well plates at 8000 cells/well in DMEM+10% FBS+1× pen/step+1×NEAA and incubated at 37° C. overnight in a CO2 incubator. Cells were then treated with compounds for 4 hours. After cells were stimulated by 3 uM Calcium Ionophore (Sigma) at 37° C. for 30 minutes, cells were washed and then lysed with cell lysis buffer (CisBio) for 30 minutes. […] Plates were incubated overnight and then read using HTRF mode by BMG PHERAstarFS.

[4] = target: CaMKK1 (Homo sapiens, UniProt Q8N5S9); assay: CaMKK1 IC50; type: binding
Chain of CaMKK1 (Q8N5S9 whole entry, species assumed): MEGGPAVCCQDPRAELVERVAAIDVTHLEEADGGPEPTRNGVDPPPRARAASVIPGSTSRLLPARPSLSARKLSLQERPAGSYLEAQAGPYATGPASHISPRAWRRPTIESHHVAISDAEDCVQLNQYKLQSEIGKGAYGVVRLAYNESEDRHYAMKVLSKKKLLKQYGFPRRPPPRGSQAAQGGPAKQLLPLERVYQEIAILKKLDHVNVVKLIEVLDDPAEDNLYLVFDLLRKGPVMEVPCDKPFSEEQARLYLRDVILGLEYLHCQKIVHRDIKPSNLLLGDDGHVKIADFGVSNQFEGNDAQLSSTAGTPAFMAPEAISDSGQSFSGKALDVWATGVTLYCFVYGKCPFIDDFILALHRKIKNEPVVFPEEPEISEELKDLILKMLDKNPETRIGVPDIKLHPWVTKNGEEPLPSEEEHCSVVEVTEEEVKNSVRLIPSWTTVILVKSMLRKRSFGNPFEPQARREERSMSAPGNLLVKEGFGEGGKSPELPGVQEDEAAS

[5] = test system: KSP (72) kinases; set-up: dose or concentration left out as unconfirmed; settings: of 72 kinases

Compound	IC50 [1] [nM]	IC50 [2] [nM]	IC50 [3] [nM]	IC50 [4] [nM]	Kinase Selectivity KSP (72) [5]	IC50 ([2]; Table 8) [nM]	EC50 ([3]; A549, read-out: A549 pAMPK MOA EC50) [nM]
CCNc1cc(-n2ccc3ncc(-c4ccccc4)nc32)ccc1C(=O)O [Example 5, 2-(Ethylamino)-4-(3-phenylpyrrolo[2,3-b]pyrazin-5-yl)benzoic Acid]	> 10000	< 100	100 to 1000	–	–	–	–
CCOc1cc(F)c2c(-c3ccc(C(=O)O)c(C4CCCC4)c3)ncnc2c1 [Example 5.2, 2-cyclopentyl-4-(7-ethoxy-5-fluoroquinazolin-4-yl)benzoic acid]	–	–	–	12	–	–	–
CCOc1ccc2c(-c3ccc(C(=O)O)c(C(C)C)c3)c(F)cnc2c1 [Example 5.4, 4-(7-ethoxy-3-fluoroquinolin-4-yl)-2-isopropylbenzoic acid]	–	–	–	1.7	6 of 72 @	1.1	79
O=C(O)c1ccc(-n2ccc3ncc(-c4ccccc4)nc32)cc1NCC1CC1 [Example 6, 2-((Cyclopropylmethyl)amino)-4-(3-phenyl-5H-pyrrolo[2,3-b]pyrazin-5-yl)benzoic Acid]	> 10000	< 100	100 to 1000	–	–	–	–
O=C(O)c1ccc(-n2ccc3ncc(-c4ccccc4)nc32)cc1NC1CCCC1 [Example 7, 2-(Cyclopentylamino)-4-(3-phenyl-5H-pyrrolo[2,3-b]pyrazin-5-yl)benzoic Acid]	> 10000	< 100	1000 to 10000	–	–	–	–
CCNc1cc(-n2ccc3ncc(-c4ccc(F)cc4F)nc32)ccc1C(=O)O [Example 9, 4-(3-(2,4-Difluorophenyl)-5H-pyrrolo[2,3-b]pyrazin-5-yl)-2-(ethylamino)benzoic Acid]	> 10000	< 100	100 to 1000	–	–	–	–
Cn1cc2cc(-c3cnc4ccn(-c5ccc(C(=O)O)c(NCC6CC6)c5)c4n3)ccc2n1 [Example 12, 2-(Cyclopropylmethylamino)-4-(3-(2-methyl-2H-indazol-5-yl)-5H-pyrrolo[2,3-b]pyrazin-5-yl)benzoic Acid]	> 10000	< 100	100 to 1000	–	–	–	–
CCNc1cc(-n2ccc3ncc(-c4ccc5nn(C)cc5c4)nc32)ccc1C(=O)O [Example 13, 2-(Ethylamino)-4-(3-(2-methyl-2H-indazol-5-yl)-5H-pyrrolo[2,3-b]pyrazin-5-yl)benzoic Acid]	> 10000	< 100	100 to 1000	–	–	–	–
O=C(O)c1ccc(-n2ccc3ncc(C4CC4)nc32)cc1C1CCCC1 [Example 18, 2-Cyclopentyl-4-(3-cyclopropyl-5H-pyrrolo[2,3-b]pyrazin-5-yl)benzoic Acid]	> 10000	< 100	100 to 1000	–	–	–	–
N#CNC(=O)c1ccc(-n2ccc3ncc(C4CC4)nc32)cc1C1CCCC1 [Example 19, N-Cyano-2-cyclopentyl-4-(3-cyclopropyl-5H-pyrrolo[2,3-b]pyrazin-5-yl)benzamide]	> 10000	< 100	1000 to 10000	–	–	–	–
c1cc(-c2nn[nH]n2)c(C2CCCC2)cc1-n1ccc2ncc(C3CC3)nc21 [Example 20, 5-(3-cyclopentyl-4-(2H-tetrazol-5-yl)phenyl)-3-cyclopropyl-5H-pyrrolo[2,3-b]pyrazine]	> 10000	< 100	> 10000	–	–	–	–
Cc1cc(C)cc(-c2cnc3ccn(-c4ccc(C(=O)O)c(OC5CNC5)c4)c3n2)c1 [Example 24, 2-(azetidin-3-yloxy)-4-(3-(3,5-dimethylphenyl)-5H-pyrrolo[2,3-b]pyrazin-5-yl)benzoic Acid]	> 10000	100 to 1000	< 100	–	–	–	–
